The results in this text go back to US10301264B2, “Compounds useful for treating ocular neovasculan” (The University of Nottingham, priority 2012, dated 2019).

As usually defined, the IC50 is the midpoint of a concentration-inhibition curve. For orientation: half-life means the time needed for the level to fall by half in the phase considered. As a reminder, the EC50 is the concentration needed to bring the measured effect to its halfway point.

SMILES strings stand for the structures. Values after ≈ are worked out from the molar mass of the structure shown. “Also recorded” adds a separate entry of the source.

In data set [1] the test system is VEGF165b protein in RPE cells. Put plainly: Western blotting for VEGF165b in RPE cells. Format: cell-based, human. The note with it: 100 nM, FIG. 9B. As to the method:
Protein was extracted from RPE cells treated for 48 hours with SPHINXes and subjected to western blotting for VEGF165b using anti-VEGF165b antibody as previously described (Gammons et al Invest. Ophthahnol. Vis. Sci. 54(9) 6052-6062).

For data set [2], the system named is VEGF165 mRNA isoforms in primary RPE cells. The experiment in a line: RT-PCR for VEGF165 / VEGF165b mRNA in primary RPE cells. Format: cell-based, human. How it is done:
ID NO: 5)). […] Cells were treated with […]6 and 7 and the PCR repeated.

Data set [3] relates to laser-induced CNV. Put plainly: Laser-induced mouse CNV model, intravitreal injection. Format: in vivo. The note with it: for area of neovascular lesions, mouse laser-induced CNV model: discussion summary, route not stated. How it is done:
(§1) Laser Lesion Induction Protocol
(§2) Six to eight week-old C57/B6 mice (B&K Laboratories) and adult Norway-Brown rats (Harlan Laboratories) were anaesthetized with an intraperitoneal injection of a mixture of 50 mg/kg ketamine and 0.5 mg/kg medetomidine. The pupils were dilated with 2.5% phenylephrine hydrochloride and 1% tropicamide. Four photocoagulation lesions were delivered with a krypton red laser (Mice: 250 mW, 0.01 s, 75 μm, Rats: 200 mW, 0.01 s, 75 μm, IRIS Medical 810 nm Oculight Slx laser) between the retinal vessels in a peripapillary distribution at a distance of 1-2 disc-diameters in each eye. Only laser lesions with a subretinal bubble at the time of treatment were included in the study. […] Animals were culled on either day 4 or day 14 and eyes were either unfixed for retinal dissection and protein extraction, or fixed and enucleated and choroids stained for isolectin-B4 and examined.

Data set [4] concerns laser-induced CNV. Put plainly: Laser-induced mouse CNV model, topical eye drops. Format: in vivo. How it is done:
as §1, §2
We performed a dose response trial investigating SRPIN340 topical eye drops. SRPIN340 was dissolved in a previously described drug delivery vehicle (Doukas et al., 2008) and administered twice daily. Fourteen days following laser insult choroids were fixed and flatmounted for isolectin staining and retinae were extracted for RNA analysis.

For data set [5], the system named is SRSF1 phosphorylation in PC3 prostate cancer cells. The experiment in a line: Inhibition of SRSF1 phosphorylation induced by EGF activation. Type of data set: cell-based. The conditions noted are these: 10 μM, 1 hr, 10 nM EGF. As to the method:
Inhibition of SRSF1 Phosphorylation Induced by EGF Activation. […] Cells were lysed, and subjected to immunoblotting using an antibody to phosphorylated SR proteins (MAB104) and an antibody to tubulin as a loading control. Intensity was measured for SRSF1 and SRSF5 bands using ImageJ Intensity. Phosphorylation is calculated as the increase in intensity of the band over untreated relative to that for EGF with vehicle.

In the next data set the target is SRPK1 (Homo sapiens, UniProt Q96SB4). Put plainly: In vitro kinase assay (Kinase-Glo), SRPK1. Format: biochemical. In general terms: Kinase-Glo reads ATP consumption through a luciferase reaction.
Sequence of SRPK1 (Q96SB4 whole entry, species assumed): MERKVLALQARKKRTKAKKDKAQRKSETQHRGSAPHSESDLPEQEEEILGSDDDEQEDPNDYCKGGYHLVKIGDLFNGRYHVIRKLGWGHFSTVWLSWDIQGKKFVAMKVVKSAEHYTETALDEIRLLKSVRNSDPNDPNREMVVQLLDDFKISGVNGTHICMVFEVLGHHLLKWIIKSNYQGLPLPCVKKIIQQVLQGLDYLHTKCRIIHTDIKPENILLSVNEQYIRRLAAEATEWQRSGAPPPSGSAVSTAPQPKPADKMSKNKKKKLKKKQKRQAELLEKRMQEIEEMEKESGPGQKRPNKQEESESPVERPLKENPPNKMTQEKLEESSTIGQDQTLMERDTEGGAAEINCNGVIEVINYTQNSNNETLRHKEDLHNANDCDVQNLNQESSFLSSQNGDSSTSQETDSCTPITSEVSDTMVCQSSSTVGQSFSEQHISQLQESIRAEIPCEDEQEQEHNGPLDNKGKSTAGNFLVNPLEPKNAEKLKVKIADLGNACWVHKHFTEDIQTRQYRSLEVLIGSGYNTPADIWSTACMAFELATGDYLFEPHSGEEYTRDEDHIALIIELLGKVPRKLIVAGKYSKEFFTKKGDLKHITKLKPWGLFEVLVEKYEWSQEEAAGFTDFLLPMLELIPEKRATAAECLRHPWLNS
Data set [6] is described as follows: Pharmacokinetics in the eye after intravitreal injection (mass spectrometry). Type of data set: in vivo, mouse. The conditions noted are these: 20 ng intravitreal.
Data set [7] has as its system VEGF165 mRNA in the retina. The experiment in a line: VEGF165 mRNA expression in retinae after topical treatment. Type of data set: in vivo. The note with it: mouse, day 14.
Data set [8] is described as follows: Pharmacokinetics in the eye after topical application (mass spectrometry).
For another data set, the target named is SRPK2 (Homo sapiens, UniProt P78362). The experiment in a line: In vitro kinase assay, SRPK2. Type of data set: biochemical.
Sequence of SRPK2 (P78362 whole entry, species assumed): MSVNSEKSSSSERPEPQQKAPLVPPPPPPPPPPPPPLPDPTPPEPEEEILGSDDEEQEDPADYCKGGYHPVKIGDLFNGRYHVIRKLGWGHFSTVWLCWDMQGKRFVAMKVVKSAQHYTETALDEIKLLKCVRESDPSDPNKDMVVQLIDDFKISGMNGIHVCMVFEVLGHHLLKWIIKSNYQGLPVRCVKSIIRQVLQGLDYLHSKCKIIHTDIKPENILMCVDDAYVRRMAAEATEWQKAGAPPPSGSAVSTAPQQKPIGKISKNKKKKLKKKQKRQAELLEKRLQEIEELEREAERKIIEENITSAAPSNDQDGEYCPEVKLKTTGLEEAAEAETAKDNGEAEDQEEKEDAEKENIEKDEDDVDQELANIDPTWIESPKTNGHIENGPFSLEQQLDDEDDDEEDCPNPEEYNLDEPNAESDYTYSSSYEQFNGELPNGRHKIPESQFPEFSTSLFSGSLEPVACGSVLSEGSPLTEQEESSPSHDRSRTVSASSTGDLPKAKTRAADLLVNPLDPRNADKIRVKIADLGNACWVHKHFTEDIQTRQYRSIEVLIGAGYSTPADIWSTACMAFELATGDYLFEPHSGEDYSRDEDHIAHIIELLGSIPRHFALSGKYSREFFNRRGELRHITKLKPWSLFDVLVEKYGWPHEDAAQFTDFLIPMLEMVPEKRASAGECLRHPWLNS
A short description of another data set: in vivo. The note with it: CD-1, mouse, topical or ocular, 5 ug.
In another data set the test system is VEGF protein expression. The experiment in a line: PanVEGF and VEGFxxxb ELISA. Type of data set: cell-based, human. The conditions noted are these: FIG. 2C. How it is done:
PanVEGF and VEGFxxxb enzyme-linked immunosorbent assay (ELISA).
One μg/ml pan-VEGF capture antibody (Duoset VEGF ELISA DY-293; R&D systems) was incubated overnight at room temperature. The plates were blocked (Superblock; Thermo Scientific) and serial dilutions of recombinant human (rh)VEGF165 or rhVEGF165b standards (ranging from 4 ng/ml to 16.25 pg/ml) were added, incubated alongside sample lysates, typically diluted 1:10. The plate was incubated for one hour at 37° C. with shaking, washed and incubated with 100 μl/well of either biotinylated goat anti-human VEGF (0.1 μg/ml; R & D systems) or mouse anti-human VEGF165b (0.25 μg/ml) for one further hour at 37° C. After washing, 100 μl/well of Horseradish Peroxidase (HRP)-conjugated streptavidin (1:200; R&D Systems) was added, and plates were left at room temperature for 20 minutes.
The plates were washed and colour change induced with substrate A and B (DY-999; R&D Systems) for 20 mins under light protection. The reaction was stopped by addition of 100 μl/well of 1M H2SO4 and the absorbance was read immediately in an ELISA plate reader (Dynex Technologies Opsys MR system plate reader) at 450 nm with a control reading at 570 nm. Revelation Quicklink 4.25 software was also used to calculate a standard curve from mean absorbance values of standards enabling the estimation of VEGF concentration for each sample.
(In general: ELISA stands for enzyme-linked immunosorbent assay.)

Data set [9] concerns SRSF1 expression in ARPE-19 cells. Put plainly: SRSF1 expression relative to tubulin in ARPE-19 cells. The note with it: 72 hours up to six days. Type of data set: cell-based, human. As to the method:
Protein samples (30-50 μg) were mixed with 1× sodium-dodecyl sulphate (SDS) loading buffer (100 mM Tris-HCl, 4% SDS, 20% glycerol, 0.2% (w/v) bromophenol blue, and 5% final concentration 2-mercaptoethanol, pH6.8). To denature the protein, samples were boiled for five minutes at 100° C.
Samples were subjected to polyacrylamide gel electrophoresis (PAGE) on a 12% SDS-PAGE gel at 90V in ice cold running buffer (25 mM Tris-HCl, 250 mM glycine, 0.1% SDS, pH8.3) for approximately 2.5 hours. The separated proteins were then electrophoretically blotted to a methanol-activated polyvinylidene fluoride (PVDF) membrane (Fisher Scientific) by wet transfer for two hours at 90V in transfer buffer (50 mM Tris-HCl, 38 mM glycine, 20% methanol, pH8.3). […] The washes were repeated and the bands were detected using the Enhanced Chemoluminiscence (ECL) SuperSignal West Femto Maximum Sensitivity Substrate kit (Pierce).
The SRPK inhibitors were tested in a series of in vitro assays to determine the effect of treatment on VEGF isoform expression. Initially the effect of compound treatment on SRPK1 and SRSF1 expression was determined.

For data set [10], the system named is SRPK1 expression in ARPE-19 cells. Put plainly: SRPK1 expression in ARPE-19 cells (western blot). Type of data set: cell-based, human. The note with it: 10 μM, up to six days.
In data set [11] the test system is laser-induced CNV. The experiment in a line: Laser-induced rat CNV model, intravitreal injection. Type of data set: in vivo. The note with it: intravitreal (SRPIN340 25 ng). As to the method: as §1, §2
MVRL10 therefore appeared to be a relatively specific inhibitor of SRPK1. To determine whether SRPK1 inhibition could inhibit CNV in animal models we tested these compounds alongside each other in a laser-induced mouse CNV model. […]

The test system of data set [12] is VEGF expression in retinal protein. Put plainly: Retinal protein VEGF expression by western blot, rat CNV model. Type of data set: in vivo. As to the method:
as §2
Retinal protein from SRPIN340 and saline treated eyes 4 days after initial treatment was assessed for VEGF expression by western blot. […] The expression of VEGFxxxb isoforms was investigated using mouse monoclonal 561 antibody (R&D systems).

Consider `CN(C)CCN1CCN(c2ccc(C(F)(F)F)cc2NC(=O)c2ccc(-c3ccncc3)o2)CC1` [SPHINX7], for which the “VEGF165b at protein level” value in [1] is “increase VEGF165b”. The “amount of VEGF165 at RNA level” value in data set [2] (100 nM, FIG. 9A) is on record as “reduce the amount of VEGF165”. Moreover, the “area of neovascular lesions, mouse laser-induced CNV model” value in the data set with laser-induced CNV [3] is “achieving significance”. In addition, the “CNV formation, eye drop” value with laser-induced CNV [4] (mouse, topical) is on record as “significantly inhibited CNV formation”. In the data set with laser-induced CNV [4] (mouse, topical, FIG. 11, read-out: IC50 for inhibition of CNV as an eye drop), the IC50 was 0.225 µg/mL (≈ 0.462 µM). In addition, the “SRSF1 phosphorylation induced by EGF” value in data set [5] is “inhibit SRSF1 phosphorylation”.

On to `O=C(Nc1cc(C(F)(F)F)ccc1N1CCCCC1)c1ccncc1` [SRPIN340, N-[2-(1-piperidinyl)-5-(trifluoromethyl)phenyl]isonicotinamide], for which the values for the IC50 on SRPK1 and against SRPK2 were 0.96 µM and 7.4 µM, respectively. Besides, the “expression of VEGF165 mRNA relative to GAPDH” value in data set [2] (5 μM, 24 hours, primary RPE cells) is “reduced the expression VEGF65 at RNA level”. Besides, the “concentration in the eye” value in [6] (over a 2 day period) is over 10 ng/mL. The half-life is 22 h in [6] (mouse, eye tissue, 1-48 hours curve fit, read-out: sustained half-life in the eye (converted)) and 0.583 h in the data set “in vivo”. Also, the “area of neovascular lesions, mouse laser-induced CNV model” value in the data set with laser-induced CNV [3] was “achieving significance”. Besides, the “EC50 on CNV area” value with laser-induced CNV [3] (mouse, intravitreal, total injected dose) amounted to 1.28 ng. For the same molecule, the “neovascular area vs control injected eyes” value with laser-induced CNV [3] (two intravitreal injections of 10 ng, mouse) is “significantly reduced neovascular area”. Moreover, the “VEGF165 mRNA expression in the retinae” value in data set [7] was “reduced; also recorded: near significant reduction in VEGF165”. For the same molecule, the “CNV area, 0.01% solution” value in the data set with laser-induced CNV [4] (0.01% solution in gel drug delivery vehicle, topical) is reported as “significant inhibition of CNV area”. In addition, in the data set on laser-induced CNV [4] (Mus musculus, topical, read-out: EC50 on CNV, topical), the EC50 is 3.19 µg/mL (≈ 9.12 µM). The “CNV formation, eye drop” value in the data set on laser-induced CNV [4] (mouse, topical) is listed as “significantly inhibited CNV formation; also recorded: significantly suppressed CNV”. Also, the “EC50 on CNV lesion area, topical drops” value in the data set with laser-induced CNV [4] (mouse, twice daily eye drops, total dose) is 640 ng. Further, in data set [8] (48 hours after a single topical administration), the “detection in the eye” value is reported as “still detectable”. For the same molecule, the systemic detection result in data set [8] (after a single topical administration) was “not detected systemically”. Further, the “fraction of total applied dose detected in the eye” value in [8] (single topical 5 μg, after 1 hour, whole eye) is 3.5%. Also, in data set [8] (single topical 5 μg, after 12 hours), the “fraction of applied dose detected in the posterior chamber” value was 0.15%. Further, the “VEGF expression relative to total protein” value in the data set on VEGF protein expression is recorded as “significantly reduced total VEGF expression”. In addition, the “expression of SRSF1 relative to a tubulin control” value in [9] is given as “reduced expression of SRSF1”. The SRPK1 expression result in data set [10] is recorded as “failed to affect SRPK1 expression”. In the data set on laser-induced CNV [11], the “CNV area vs saline injected controls” value is “significantly reduced the CNV area”. Besides, in [12] (rat, 4 days after initial treatment), the “ratio of pro to anti-VEGF isoforms in retinal protein” value is “No difference in the ratio of pro to anti-VEGF isoforms”. In addition, the “VEGF expression in retinal protein” value in data set [12] (rat, 4 days after initial treatment, western blot) was “decrease in the expression of VEGF; also recorded: reduced CNV area and total VEGF protein expression”. Besides, the “expression of VEGFxxxb isoforms in rat retinae” value in data set [12] (vs saline controls) is “no change in the expression of VEGFxxxb isoforms”.
